A short description of data set [1]: Membrane-water partition/distribution coefficient. The note with it: extrapolated from data of Timmer and Droge (2017).
Data set [2] is described as follows: Tissue-blood distribution coefficients and volume of distribution. The note with it: whole blood, pH 7.5, Estimated volume of distribution Vd, residues in muscle, liver and blood only. How it is done: Blood is the transport medium for contaminants in fish, and the tissue distribution is governed by tissue–blood distribution coefficients. […] Muscle–blood and liver–blood distribution coefficients (DMus–B and DL–B) were calculated as the quotients of the concentrations in the respective tissues and blood. This approach implies that there was an internal test chemical steady state in the fish.
The experimental data also allow estimation of the volume of distribution (Vd), an important parameter for extrapolating in vitro measures of e.g. metabolism to in vivo. In the context of quantitative in vitro–in vivo extrapolation for fish, Vd is defined as the quotient of the concentration in fish and the concentration in blood and describes the equivalent volume of blood that would contain the same amount of the chemical as 1 kg of fish.[40]Vd was estimated using the residues that had been clearly taken up systemically (i.e., those in muscle, liver and blood).

The conditions of data set [3]: Table S2; cited from earlier work.
The subject of data set [4] is rainbow trout (Oncorhynchus mykiss). Nature of the data set: Apparent bioconcentration factor at end of 7-day exposure. In kind it is in vivo. The note with it: end of 7-day exposure, body burden including mucus. How it is done:
Apparent BCFs (BCFapp) at the end of the 7-day exposure were calculated by dividing the surfactant body burden (including mucus) by the fish mass, and dividing this by the average measured concentration in water samples taken during the exposure phase. The BCFapp values ranged from 0.1 to 1260 (Table S18). Given the short exposure period, it is possible that the fish in this study had not approached steady state, in particular with respect to the distribution between water and internal tissues and between water and skin, and that the steady-state BCFs are higher. […] We note that some improvements in the methodology would be helpful, particularly with respect to the stability of the aqueous exposure concentration of the longest chain surfactants. Working with mixtures of analogue cationic surfactants allowed for consistent evaluation of differences in accumulation trends due to structural features.

The nature of data set [5]: Tissue concentrations in rainbow trout after 7 d exposure via water (two mixtures). In kind it is in vivo, Oncorhynchus mykiss. The note with it: rainbow trout (Oncorhynchus mykiss), in vivo. How it is done:
(§1) The study was conducted with rainbow trout (Oncorhynchus mykiss) weighing between 98 and 165 g. The fish were purchased from Nordic trout Sweden AB and held in the aquaria facility prior to the experiment in February 2018. Ethical approval for the experiments was obtained from Stockholms djurförsöksetiska nämnd (decision 9967-2017). The experiments were conducted in 300 L fiberglass aquaria with a water renewal rate of 1.3 L min^–1 (MIX 1) and 1.45 L min^–1 (MIX 2). The water temperature was 10 °C and the pH 7.5. The water hardness was estimated to be 1.1 mM Ca^2+ based on information from the water supplier. The aquaria water was circulated through a filter of polyester wool at 800–1200 L h^–1 with an Eheim 2273 Pro 4+ pump. The outflow from the filter pump was placed above the water surface, providing for aeration. The lighting was dim and programmed on a 12 h light/12 h dark cycle. The fish were fed fish food pellets supplied by the fish farm at 1.0% of their body weight per day.
(§2) A solution of the test chemical mixture in methanol was infused continuously (3.5 and 3.8 μL min^–1 for MIX 1 and MIX 2, respectively) into the water inflow using a syringe pump. The intended concentrations of the chemicals in water ranged from 2.5 to 50 μg L^–1 (Table 1). They were selected with the help of modeled estimates of the BCF that were based on reported and extrapolated membrane water partition coefficients[7] and biotransformation rate constants predicted with quantitative structure activity relationships (QSARs)[24],[25] to parameterize the BIONIC model.[26] Based on these estimates, we selected an exposure concentration which would result in concentrations in fish that were clearly above the limit of quantification (LOQ) of the analytical method, while trying to keep the quantifiable exposure concentration as low as possible to minimize the risk of toxic effects and micelle formation (see comparison of intended concentrations with available toxicological data in Table S4).
(§3) The surface of the fish posterior of the gills was rinsed with 100% methanol to remove test chemical residues adsorbed to the outer surface of the skin and absorbed in the skin mucus. […] The fish were dissected and the liver, the kidney, the gills, and the remaining contents of the abdominal cavity were taken and weighed. Skin and muscle samples were prepared from the upper dorsal region on semi-frozen fish after the methanol rinse had removed the mucus. The main part of the subcutaneous fat tissue was included in the muscle samples rather than in the skin samples. All samples were stored frozen at −20 °C until further analysis.
(§4) For 6 fish from each aquarium and 3 control fish, samples of muscle, skin, liver, and gills were homogenized in a bullet blender (muscle and liver) (MiniG, SPEXsamplePrep) or in a cryo-mill (skin and gill) (Mixer mill cryomill, Retsch GmbH). A sub-sample of 0.5–1.2 g of the homogenate was extracted twice in methanol (4 mL, 50 °C, ultra-sound, 60 min), employing centrifugation at 4000 rpm for phase separation. Further information on the extraction efficiency of this method can be found in the Supporting Information (Table S5 and accompanying text). Isotope labeled standards of Q10 (D21), Q14 (D29), and P16 (D33) were added to a portion of the extract corresponding to 12–75 mg of the sample. The extract volume was adjusted to 3 mL with methanol and then cleaned up on a weak cationic exchange SPE column (WCX, 60 mg, 30 μm particle size, waters). Solvent elution was performed by gravity flow. The column was conditioned with 2 mL of methanol, followed by 2 mL of Milli-Q water adjusted to pH 7 with ammonium hydroxide to activate the ion exchange. The sample extract was loaded onto the column, and it was subsequently rinsed with 20 mL of methanol.

In data set [6] the test system is rainbow trout (Oncorhynchus mykiss). The data set is described as above. In kind it is in vivo. To be noted: rainbow trout (Oncorhynchus mykiss), in vivo, 7 d. How it is done: as §1, §2, §3, §4

Each structure is given as a SMILES string.

As to `CCCCCCCCCCCCCN` [P13, tridecylamine], the “Log KMW,C (membrane-water partition coefficient of the charged form), extrapolated” value in data set [1] is listed as 6.16. For the same compound, the Vd at 7 d is 1.49 L/kg in data set [2] (rainbow trout (Oncorhynchus mykiss), other: exposure via water, Mean); 1.59 L/kg in data set [2] (exposed fish #1); 1.44 L/kg in data set [2] (exposed fish #2); 1.28 L/kg in data set [2] (exposed fish #3); 1.33 L/kg in data set [2] (exposed fish #4); 1.54 L/kg in data set [2] (exposed fish #5). Further, the Vd at 7 d in data set [2] (exposed fish #6) is 1.77 L/kg. Also, in data set [3], the pKa was 10.5. In addition, the “Apparent bioconcentration factor (BCFapp)” value in data set [4] was 490 L kg-1 wet weight. Also, the concentration at 7 d came to 2160 ng/g in data set [5] (Concentration in skin); 495 ng/g in data set [5] (pH 7.5, Concentration in blood); 16000 ng/g in data set [5] (pH 7.5, Concentration in gills); 451 ng/g in data set [5] (pH 7.5, Concentration in muscle); 2040 ng/g in data set [5] (pH 7.5, Concentration in skin). Besides, the Concentration in gills in data set [6] is reported as 17 800 (12) ng g^–1. The “Concentration in liver” value in data set [6] is given as 50 000 (26) ng g^–1. In addition, the “Concentration in skin” value in data set [6] is listed as 2400 (19) ng g^–1. Further, in data set [6] (pH 7.5), the “Concentration in blood” value is listed as 540 (12) ng g^–1. In data set [6] (pH 7.5), the “Concentration in muscle” value was 530 (16) ng g^–1. Further, the “Concentration in skin, per surface area” value in data set [6] (pH 7.5) was 195 ng cm-2.

By Vd is commonly meant the apparent volume that relates the amount in the body to the concentration in plasma or blood. What is called pKa is the pH at which an ionisable group is half protonated.

The values above are taken from PMC7343282, “Tissue Distribution of Several Series of Cationic Surfactants in Rainbow Trout (Oncorhynchus mykiss) Following Exposure via Water” (Environmental Science & Technology, 2020).
